“And” between values parts separate entries of the source, which are not always exact repeats. Identical values can stand only once. Like-named read-outs stand apart in the source and are kept apart here.
How the values were obtained:
[1] = system: CUG/GUG vs AUG start codon luciferase reporters in HEK293T cells; assay: Near-cognate AUG starting codon fidelity reporter assay (GUG, CUG vs AUG); assay type: cell-based; conditions: for average CUG and GUG / average CUG and GUG relative to DMSO / CUG Average / GUG Average: NUG experiment; for CUG Average: CUG vs AUG reporter; for GUG Average: GUG vs AUG reporter; for NUG (Final data, Fig. 1E): average CUG and GUG relative to DMSO, 20 µM overnight; for GUG vs AUG data (%): individual repeat; for GUG vs AUG (%) Average: summary average of repeats, DMSO control average […]
[2] = system: IRF7 5'UTR firefly luciferase reporter in HEK293T cells; conditions: for Reference vs IRF7 (Final data, Fig. 1E): 1/Result, relative to DMSO; for LONG (summary - All), normalized to DMSO: Long reporter; for LONG (summary - All), normalized to DMSO / SHORT (summary - All), normalized to DMSO: individual replicates, outliers excluded, DMSO = 1; for average ( long vs short ratio): summary - All;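 on all read-outs here: luciferase signal corrected by a co-transfected GFP reporter for transfection efficiency, read after overnight compound exposure, with Long and Short reporters differing in 5'UTR length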
[3] = target: T1, eIF1A without NTT (Homo sapiens, UniProt P47813); assay: Fluorescence binding assay with NTT-truncated eIF1A; conditions: for fluorescence ratio, eIF1A Δ NTT: background-corrected, relative to DMSO or lowest 1Ai concentration, replicate columns
T1 construct: His-bdSUMO (cleaved yes); made in house; host or cells: E. coli (BL-21)
T1 sequence (P47813 31-144 limits assumed): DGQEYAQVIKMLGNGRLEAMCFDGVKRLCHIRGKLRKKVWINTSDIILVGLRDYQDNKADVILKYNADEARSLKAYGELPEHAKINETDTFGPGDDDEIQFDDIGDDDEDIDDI

[4] = target: T2, eIF1A without CTT (Homo sapiens, UniProt P47813); assay type: binding; conditions: for fluorescence ratio, eIF1A Δ CTT: background-corrected, relative to DMSO or lowest 1Ai concentration, replicate columns
T2 construct: His-bdSUMO (cleaved yes); made in house; host or cells: E. coli (BL-21)
T2 sequence (P47813 1-114 limits assumed): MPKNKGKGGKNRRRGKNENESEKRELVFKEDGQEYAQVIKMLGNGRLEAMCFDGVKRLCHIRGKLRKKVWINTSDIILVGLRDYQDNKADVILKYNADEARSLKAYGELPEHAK

[5] = 1Ai conc. 0.5 uM, listed as 5662
[6] = eIF1A Δ NTT, from the titration data, read-out: IC50 (eIF1A Δ NTT titration block)
[7] = summary table, fluorescence binding assay, read-out: IC50 concentration (µM), NTT truncation
[8] = eIF1A Δ CTT, from the titration data, read-out: IC50 (eIF1A Δ CTT titration block)
[9] = summary table, fluorescence binding assay, read-out: IC50 concentration (µM), CTT truncation

| Structure (SMILES) | average CUG and GUG [1] | average CUG and GUG relative to DMSO [1] | CUG Average [1] | GUG Average [1] | NUG (Final data, Fig. 1E) [1] | Reference vs IRF7 (Final data, Fig. 1E) ([2]; 20 µM) | fluorescence ratio, eIF1A Δ NTT ([3]; 1Ai conc. 0.25 uM) | fluorescence ratio, eIF1A Δ NTT ([3]; 1Ai conc. 0.5 uM) | fluorescence ratio, eIF1A Δ NTT ([3]; 1Ai conc. 1 uM) | fluorescence ratio, eIF1A Δ NTT ([3]; 1Ai conc. 2 uM) | fluorescence ratio, eIF1A Δ NTT ([3]; 1Ai conc. 4 uM) | fluorescence ratio, eIF1A Δ NTT ([3]; 1Ai conc. 8 uM) | fluorescence ratio, eIF1A Δ NTT ([3]; 1Ai conc. 16 uM) | fluorescence ratio, eIF1A Δ NTT ([3]; 1Ai conc. 32 uM) | fluorescence ratio, eIF1A Δ NTT ([3]; 1Ai conc. 64 uM) | fluorescence ratio, eIF1A Δ NTT ([3]; 1Ai conc. 256 uM) | IC50 [3, 6] [µM] | IC50 [3, 7] [µM] | fluorescence ratio, eIF1A Δ CTT ([4]; 1Ai conc. 0.25 uM) | fluorescence ratio, eIF1A Δ CTT ([4]; 1Ai conc. 1 uM) | other results |
| --- | --- | --- | --- | --- | --- | --- | --- | --- | --- | --- | --- | --- | --- | --- | --- | --- | --- | --- | --- | --- | --- |
| CN(C)CC1CCn2cc(c3ccccc32)C2=C(C(=O)NC2=O)c2cn(c3ccccc23)CCO1 (stereo not drawn) [1Ai-5662] | 5.24 | 1.162 | 7.645 | 2.835 | 1.162 | 0.936 | 0.839 and 0.8682 and 1 | 1.068 | 0.9026 and 0.9044 and 1.056 | 0.8689 and 0.9922 and 1.016 | 0.8614 and 0.9638 and 0.988 | 0.8277 and 0.845 and 0.9679 | 0.6816 and 0.8424 and 0.9197 | 0.5918 and 0.6641 and 0.7952 | 0.4307 and 0.4574 and 0.6064 | 0.2846 and 0.3101 and 0.4458 | 37.9 | 37.9 | 0.8742 and 0.9398 | 0.8798 and 0.8003 | GUG vs AUG data (%) ([1]; compound at 10uM): 1.99% and 4.83% and 1.69%; GUG vs AUG (%) Average ([1]; compound at 10uM): 2.83%; LONG (summary - All), normalized to DMSO ([2]; 10 µM): 1.11 and 0.84 and 0.46 and 0.50; SHORT (summary - All), normalized to DMSO ([2]; Short reporter, 10 µM): 0.67 and 0.80 and 0.62 and 0.63; average ( long vs short ratio) ([2]; 10 µM): 1.068; fluorescence ratio, eIF1A Δ NTT [3, 5]: 0.9101 and 0.8837; fluorescence ratio, eIF1A Δ CTT [4, 5]: 0.8855 and 0.8821; fluorescence ratio, eIF1A Δ CTT ([4]; 1Ai conc. 2 uM): 0.8074 and 0.8109; fluorescence ratio, eIF1A Δ CTT ([4]; 1Ai conc. 4 uM): 0.7089 and 0.7163; fluorescence ratio, eIF1A Δ CTT ([4]; 1Ai conc. 8 uM): 0.4859 and 0.6001; fluorescence ratio, eIF1A Δ CTT ([4]; 1Ai conc. 16 uM): 0.4269 and 0.4563; fluorescence ratio, eIF1A Δ CTT ([4]; 1Ai conc. 32 uM): 0.2954 and 0.3164; fluorescence ratio, eIF1A Δ CTT ([4]; 1Ai conc. 64 uM): 0.164 and 0.1518; fluorescence ratio, eIF1A Δ CTT ([4]; 1Ai conc. 256 uM): 0.1171 and 0.08567; IC50 [4, 8]: 12.4 µM; IC50 [4, 9]: 12.4 µM |
| COc1cccc(Nc2nc(-c3ccc(NC(C)=O)cc3)c(C)s2)c1 [1Ai-1869] | 3.262 | 0.7232 | 5.139 | 1.3841 | 0.723 | 1.329 | 1 | 0.9867 | 1.085 | 0.9841 | 0.9947 | 0.9125 | 0.8674 | 0.7984 | 0.7082 | 0.6737 | 21.3 | 21.3 | 0.6232 and 0.681 | 0.6117 and 0.6127 | CUG vs AUG (%) ([1]; CUG start codon reporter relative to AUG reporter (AUG = 100), compound at 5uM (summary head), single-experiment calculation): 5.139%; GUG vs AUG (%) ([1]; GUG start codon reporter relative to AUG reporter (AUG = 100), compound at 5uM (summary head), single-experiment calculation): 1.3841%; GUG vs AUG data (%) ([1]; compound at 5uM): 2.01% and 1.38%; GUG vs AUG (%) Average ([1]; compound at 5uM): 1.70%; LONG (summary - All), normalized to DMSO ([2]; 5 µM): 0.51 and 0.25 and 0.61; SHORT (summary - All), normalized to DMSO ([2]; Short reporter, 5 µM): 0.54 and 0.69 and 0.59; Short: Normalized to average DMSO ([2]; data section, Short reporter, GFP-corrected, 5 µM, per experiment, includes values excluded as outliers): 0.5397 and 0.69 and 0.5937; average ( long vs short ratio) ([2]; 5 µM): 0.752; fluorescence ratio, eIF1A Δ CTT ([4]; 1Ai conc. 0.5 uM): 0.6378 and 0.5984; fluorescence ratio, eIF1A Δ CTT ([4]; 1Ai conc. 2 uM): 0.4666 and 0.4698; fluorescence ratio, eIF1A Δ CTT ([4]; 1Ai conc. 4 uM): 0.4763 and 0.4603; fluorescence ratio, eIF1A Δ CTT ([4]; 1Ai conc. 8 uM): 0.4568 and 0.3937; fluorescence ratio, eIF1A Δ CTT ([4]; 1Ai conc. 16 uM): 0.3246 and 0.3079; fluorescence ratio, eIF1A Δ CTT ([4]; 1Ai conc. 32 uM): 0.1925 and 0.219; fluorescence ratio, eIF1A Δ CTT ([4]; 1Ai conc. 64 uM): 0.1778 and 0.2; fluorescence ratio, eIF1A Δ CTT ([4]; 1Ai conc. 256 uM): 0.2104 and 0.2095; IC50 [4, 8]: 5.75 µM; IC50 [4, 9]: 5.7 µM |
| CN1CCN(S(=O)(=O)c2ccc(N3Cc4cc5c(cc4C4(CCCC4)C3)OCCO5)nc2)CC1 [1Ai-3564] | 6.96 | 1.543 | 10.8773 | 3.042 | 1.543 | 1.762 | 1 | 1.007 | 0.9932 | 1.2 | 1.048 | 1.009 | 1.298 | 1.4 | 1.423 | 1.807 | 43.2 | 43.2 | 1.127 and 1.051 | 1.087 and 1.0877 | GUG vs AUG data (%) ([1]; compound at 20uM): 2.43% and 3.12% and 4.52% and 2.10%; GUG vs AUG (%) Average ([1]; compound at 20uM): 3.04%; LONG (summary - All), normalized to DMSO ([2]; 20 µM): 0.26 and 0.60 and 0.49 and 0.43 and 0.25; SHORT (summary - All), normalized to DMSO ([2]; Short reporter, 20 µM): 0.54 and 0.80 and 0.85 and 0.72 and 0.67; Long 5'UTR reporter luciferase activity, normalized to DMSO (=1), single replicates ([2]; compound at 20 µM, left data block (Long), source data of Fig 1C): 0.261 and 0.6001 and 0.4877 and 0.4313 and 0.2492; average ( long vs short ratio) ([2]; 20 µM): 0.568; binding to CTT-truncated eIF1A [4]: compromised; fluorescence ratio, eIF1A Δ CTT ([4]; 1Ai conc. 0.5 uM): 1.14 and 1.091; fluorescence ratio, eIF1A Δ CTT ([4]; 1Ai conc. 2 uM): 1.109 and 1.056; fluorescence ratio, eIF1A Δ CTT ([4]; 1Ai conc. 4 uM): 1.011 and 1.035; fluorescence ratio, eIF1A Δ CTT ([4]; 1Ai conc. 8 uM): 0.8478 and 0.8594; fluorescence ratio, eIF1A Δ CTT ([4]; 1Ai conc. 16 uM): 0.8634 and 0.8337; fluorescence ratio, eIF1A Δ CTT ([4]; 1Ai conc. 32 uM): 0.9829 and 0.8523; fluorescence ratio, eIF1A Δ CTT ([4]; 1Ai conc. 64 uM): 1.0625 and 1.083; fluorescence ratio, eIF1A Δ CTT ([4]; 1Ai conc. 256 uM): 1.108 and 1.021; CTT truncation IC50 ([4]; eIF1A without CTT): No binding; IC50 concentration (µM), CTT truncation ([4]; summary table, fluorescence binding assay): No binding |

— article PMC12216609, “Inhibitors of eIF1A-ribosome interaction unveil uORF-dependent regulation of translation initiation and antitumor and antiviral effects” (The EMBO Journal, 2025)
